{
  "source": "patent US20230265393A1",
  "about": "“COMPOSITION AND METHODS FOR PRODUCING ADULT LIVER ORGANOIDS” (Rutgers, the State University of New Jersey, priority 2021, published 2023)",
  "molecules": {"B1": {"name": "BMP7: bone morphogenetic protein 7 (protein, UniProt P18075 293-431, looked up)", "Bone morphogenetic protein 7": "STGSKQRSQNRSKTPKNQEALRMANVAENSSSDQRQACKKHELYVSFRDLGWQDWIIAPEGYAAYYCEGECAFPLNSYMNATNHAIVQTLVHFINPETVPKPCCAPTQLNAISVLYFDDSSNVILKKYRNMVVRACGCH"}, "B2": {"name": "OSM: oncostatin M, a member of the IL-6 family of cytokines (protein, UniProt P13725 26-221, looked up)", "Oncostatin-M": "AAIGSCSKEYRVLLGQLQKQTDLMQDTSRLLDPYIRIQGLDVPKLREHCRERPGAFPSEETLRGLGRRGFLQTLNATLGCVLHRLADLEQRLPKAQDLERSGLNIEDLEKLQMARPNILGLRNNIYCMAQLLDNSDTAEPTKAGRGASQPPTPTPASDAFQRKLEGCRFLHGYHRFMHSVGRVFSKWGESPNRSRR"}},
  "type_in_all_cases": "cell-based, human",
  "key": {"primary hepatocytes": {"tested_on": "primary hepatocytes", "assay": "3D organoid culture of adult donor-derived primary hepatocytes (HepAOs): organoid formation and expansion", "conditions": "single hepatocyte suspensions from adult donors, supplemented EM, over 2 weeks (FIG. 1E)", "description": "Human hepatic cells were counted and seeded at a concentration of 100 cells per μL of the ECM Matrigel™ (Corning™). The cell-ECM mix were seeded on 24 well plates Greiner™) that had been incubated 24 hours prior at 37° C. A total of 50 μL of Matrigel™ were added to the center of each well to form a dome shaped chamber and incubated for 5-8 minutes at 37° C. before adding 500 μμL of isolation medium to each well. Media specifications and storage times are indicated.\nAfter 4 days, the isolation medium was substituted for expansion medium (EM) containing 10 μM ROCK inhibitor (Y-27632). The EM was replenished three times per week.\nAfter the first 6 days in culture, the ROCK inhibitor was removed from the media. The cells within the ECM mix were expanded for 14 days to form organoids. After 14 days, the media was supplemented with 25 ng/mL of BMP7, and the organoids were cultured for 5 days before replacing the media with hepatocyte differentiation medium (DM). The DM were replenished every 3 days. At day 7 of differentiation, the organoids were used for analyses. […]\nWe assessed the organoid-forming efficiency at one week in single cell derived organoids (FIG. 1B and FIG. 1C). […]"}, "HepG2 cells": {"tested_on": "HepG2 cells", "assay": "3D organoid culture of HepG2 cells (HepGOs): organoid counts", "conditions": "compared to serum-containing growth media (HepG2 GM) (FIG. 3B)", "source_text": "Well-differentiated hepatoma cell lines HepG2, PLC/PRF/5, and HuH7 were maintained as previously described. In initial studies, classical culture media was used, containing high glucose concentration (4.5 g/L) corresponding to systemic hyperglycemia. Low glucose concentrations corresponding to normoglycemia (1 g/L) were utilized in parallel to study the effects on cell proliferation. HepG2 cells were first cultured in monolayer. Once 80-90% confluence was reached the cells were collected and used to start the organoid culture. HepGOs were generated on 48 well tissue culture plates (Grenier™). The plates were left overnight at 37° C. before using them to plate the Matrigel™ matrix. Cells were plated at a concentration of approximately 40 cells per μL of Matrigel™. We used a 25 μL drop/well to form the organoid dome at the center and the organoid dome were overlaid with 250 μLs of human expansion medium (EM) with the multiple EM variations tested. The plates were then incubated for 7 days under standard tissue culture conditions (37° C. and 5% CO2). Media was changed every other day. After 7 days of expansion, the media was replaced with differentiation media (DM). The organoids were cultured for an additional 7 days, at which point the organoids were used for analysis."}, "HepGOs": {"tested_on": "HepGOs", "assay": "Glucose production assay in HepGOs", "conditions": "HepGOs expanded in EM+F+OSM, 24-hour starvation, 24 hours production (FIG. 7D)", "description": "Prior to each glucose production assay, organoid cells were serum starved for 3 and 24 hours. The assay was done in 3D organoid culture media, containing no glucose or pyruvate. For substrate glucose production assays, the glucose production basal media (BM) were supplemented with either glycerol, glucagon, or a combination of both. Data were obtained by obtaining media from wells that contained 12-14 Matrigel™ droplets containing approximately 1,400 organoids. Glucose measurements were done enzymatically with a Glucose Assay Kit (Abcam™).\nThe HepGOs were starved for 3 or 24 hours and then allowed to produce glucose for 24 hours. The glucose production basal media (BM) was supplemented with either glycerol, glucagon, or a combination of the two. Data was obtained pooled organoids with a total of ˜70,000 organoid cells. The scale bar is 100 μm. (**p<0.01, *p<0.05)."}, "G6PC": {"tested_on": "G6PC", "assay": "Q-PCR expression of G6PC in organoids", "conditions": "fresh or frozen and re-expanded organoids, EM conditions C3-C5 (FIG. 5)", "description": "(§1) RNA was first extracted from the differentiated organoids using Trizol™. RNA was used for cDNA synthesis using the iScript Kit (BioRad™). Quantitative PCR (Q-PCR) was performed for targets of interest including G6PC, PCK1, and AFP using Bio-Rad™ CFX96. Bio Rad™'s SYBR Green (SG), a asymmetrical cyanine dye used as a nucleic acid stain in Q-PCR super mix was used with the target-specific primers. See Table 3, below for a description of the primers used for hepatocyte expression. The data was analyzed using Excel™ and Prism 8™.\n(§2) HepGOs were expanded for one month, and then media were supplemented with 25 ng/mL BMP7 for 5 days before replacing the media with hepatocyte DM for one week. The data are from experiments that were done in at least in duplicate with three replicates per condition and were normalized to the endogenous control (β-Actin) and HepG2 GM cultures. The scale bar is 100 μm."}, "PCK1": {"tested_on": "PCK1", "assay": "Q-PCR expression of PCK1 in organoids", "conditions": "fresh or frozen and re-expanded organoids, EM conditions C3-C5 (FIG. 5)", "description": "as §1, §2"}},
  "data": [
    {"molecule": "Cc1cccc(-c2nn(C(=S)Nc3ccccc3)cc2-c2ccnc3ccccc23)n1", "note": "[A8301]", "values": [
      {"measurement": "number of organoids formed / expansion", "setting": "primary hepatocytes", "result": "showed the least number of organoids being formed"},
      {"measurement": "HepGO number", "setting": "HepG2 cells", "result": "significantly limited the 3D culture and expansion of HepG2 cells"}
    ]},
    {"molecule": "glucagon", "values": [
      {"measurement": "glucose production", "setting": "HepGOs", "result": "significantly enhanced glucose production"}
    ]},
    {"molecule": "B1", "values": [
      {"measurement": "HepGO number", "setting": "HepG2 cells", "result": "slightly but not significantly improved HepGO number"}
    ]},
    {"molecule": "B2", "values": [
      {"measurement": "induction of G6PC expression", "setting": "G6PC", "result": "tend to decrease at one month post differentiation"},
      {"measurement": "induction of PCK1 expression", "setting": "PCK1", "result": "tend to decrease at one month post differentiation"}
    ]}
  ]
}
